The supplement of paper PMC5908809

How the values were obtained:
[1] = test system: normal NK cells expanded with K562-aAPC; assay: drug sensitivity score (DSS) (DSS units); higher = more sensitive; extreme values may be limits of the assay; conditions: 72 h; IL-2 2.5 ng/mL
Method: (§1)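 Drug sensitivity and resistance testing on K562-aAPC-expanded normal NK cells: 5 concentrations (10-fold steps over a 10,000-fold range), 72 h at 37 °C, viability by CellTiter-Glo normalised to DMSO and benzethonium chloride controls; DSS from the fitted curve.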

SNK-6 (IL-2 2.5 ng/mL) [2] = assay: percent inhibition of viability; higher = more inhibition; conditions: 72 h
[3] = test system: normal primary NK cells, pool 1 (3 donors), resting (IL-2 0 ng/mL); assay: as above; conditions: 72 h
IMC-1 (IL-2 20 ng/mL) [4] = assay: as above; conditions: 72 h
NK-92 (IL-2 2.5 ng/mL) [5] = assay: as above; conditions: 72 h
KHYG-1 (IL-2 2.5 ng/mL) [6] = assay: as above; conditions: 72 h
[7] = test system: normal primary NK cells, pool 3 (3 donors) (IL-2 2.5 ng/mL); assay: as above; conditions: 72 h
YT (IL-2 2.5 ng/mL) [8] = assay: as above; conditions: 72 h
[9] = test system: normal primary NK cells, pool 1 (3 donors) (IL-2 2.5 ng/mL); assay: as above; conditions: 72 h
[10] = test system: normal primary NK cells, pool 2 (3 donors) (IL-2 2.5 ng/mL); assay: as above; conditions: 72 h
NKL (IL-2 2.5 ng/mL) [11] = assay: as above; conditions: 72 h
NK-YS (IL-2 2.5 ng/mL) [12] = assay: as above; conditions: 72 h
DERL-7 (IL-2 2.5 ng/mL) [13] = assay: as above; conditions: 72 h
KAI3 (IL-2 2.5 ng/mL) [14] = assay: as above; conditions: 72 h
SNK-6 (IL-2 2.5 ng/mL) [15] = assay: drug sensitivity score (DSS) (DSS units); higher = more sensitive; extreme values may be limits of the assay; conditions: 72 h
[16] = test system: normal primary NK cells, pool 1 (3 donors), resting (IL-2 0 ng/mL); assay: as above; conditions: 72 h
IMC-1 (IL-2 20 ng/mL) [17] = assay: as above; conditions: 72 h
NK-92 (IL-2 2.5 ng/mL) [18] = assay: as above; conditions: 72 h
KHYG-1 (IL-2 2.5 ng/mL) [19] = assay: as above; conditions: 72 h
[20] = test system: normal primary NK cells, pool 3 (3 donors) (IL-2 2.5 ng/mL); assay: as above; conditions: 72 h
YT (IL-2 2.5 ng/mL) [21] = assay: as above; conditions: 72 h
[22] = test system: normal primary NK cells, pool 1 (3 donors) (IL-2 2.5 ng/mL); assay: as above; conditions: 72 h
[23] = test system: normal primary NK cells, pool 2 (3 donors) (IL-2 2.5 ng/mL); assay: as above; conditions: 72 h
NKL (IL-2 2.5 ng/mL) [24] = assay: as above; conditions: 72 h
NK-YS (IL-2 2.5 ng/mL) [25] = assay: as above; conditions: 72 h
DERL-7 (IL-2 2.5 ng/mL) [26] = assay: as above; conditions: 72 h
KAI3 (IL-2 2.5 ng/mL) [27] = assay: as above; conditions: 72 h
[28] = test system: normal NK cells expanded with K562-aAPC; assay: percent inhibition of viability; higher = more inhibition; conditions: 72 h, IL-2 2.5 ng/mL
Method: as §1

C/C(=C\c1csc(C)n1)[C@@H]1C[C@@H]2O[C@]2(C)CCC[C@H](C)[C@H](O)[C@@H](C)C(=O)C(C)(C)[C@@H](O)CC(=O)O1 [Patupilone] (max concentration tested 1000 nM)
Conditions | drug sensitivity score
DERL-7 (IL-2 2.5 ng/mL) [26] | 31.1
IMC-1 (IL-2 20 ng/mL) [17] | 30.1
KAI3 (IL-2 2.5 ng/mL) [27] | 16.4
KHYG-1 (IL-2 2.5 ng/mL) [19] | 21.9
NK-92 (IL-2 2.5 ng/mL) [18] | 26.2
NK-YS (IL-2 2.5 ng/mL) [25] | 17
NKL (IL-2 2.5 ng/mL) [24] | 21.7
SNK-6 (IL-2 2.5 ng/mL) [15] | 24.3
YT (IL-2 2.5 ng/mL) [21] | 24.7
[1] | 17.1
[16] | 0.55
[20] | 0
[22] | 0.14
[23] | 0

percent inhibition of viability [%]
Conditions | 0.1 nM | 1 nM | 10 nM | 100 nM | 1000 nM
DERL-7 (IL-2 2.5 ng/mL) [13] | -4.98 | 5.91 | 98.8 | 99.6 | 99.2
IMC-1 (IL-2 20 ng/mL) [4] | -0.59 | 0.29 | 97 | 99.9 | 99.2
KAI3 (IL-2 2.5 ng/mL) [14] | -13.1 | -4.34 | 44.2 | 60.6 | 50.5
KHYG-1 (IL-2 2.5 ng/mL) [6] | -3.34 | -8.41 | 25.7 | 104 | 102
NK-92 (IL-2 2.5 ng/mL) [5] | -21.3 | -3.29 | 72.4 | 99.8 | 97.7
NK-YS (IL-2 2.5 ng/mL) [12] | -3.81 | -3.75 | 28.9 | 71.3 | 69.9
NKL (IL-2 2.5 ng/mL) [11] | -9.24 | -10.5 | 34.6 | 93.9 | 90.3
SNK-6 (IL-2 2.5 ng/mL) [2] | 5.42 | 5.23 | 75.5 | 72.6 | 69.5
YT (IL-2 2.5 ng/mL) [8] | -3.08 | -3.77 | 59.4 | 97.9 | 96.7
[3] | -18.5 | -28.5 | 6.09 | 7.49 | 15.2
[7] | -13 | -7.53 | 0.9 | 3.45 | 6.6
[9] | -9.75 | -4.17 | 10.3 | 5.4 | 6.51
[10] | 2.42 | -5.69 | 2.84 | 6.87 | 6.04
[28] | -5.25 | -3.64 | 53.5 | 57.1 | 55.8

CCOc1cc2ncc(C#N)c(Nc3ccc(F)c(Cl)c3)c2cc1NC(=O)/C=C/CN(C)C [Pelitinib] (max concentration tested 2500 nM)
Conditions | drug sensitivity score
DERL-7 (IL-2 2.5 ng/mL) [26] | 10.7
IMC-1 (IL-2 20 ng/mL) [17] | 4.58
KAI3 (IL-2 2.5 ng/mL) [27] | 9.6
KHYG-1 (IL-2 2.5 ng/mL) [19] | 9.44
NK-92 (IL-2 2.5 ng/mL) [18] | 7.76
NK-YS (IL-2 2.5 ng/mL) [25] | 3.95
NKL (IL-2 2.5 ng/mL) [24] | 7.63
SNK-6 (IL-2 2.5 ng/mL) [15] | 16.3
YT (IL-2 2.5 ng/mL) [21] | 4.06
[1] | 10.3
[16] | 6.98
[20] | 8.33
[22] | 9.9
[23] | 10.1

percent inhibition of viability [%]
Conditions | 0.25 nM | 2.5 nM | 25 nM | 250 nM | 2500 nM
DERL-7 (IL-2 2.5 ng/mL) [13] | -4.83 | -5.06 | 2.43 | 41.3 | 99.9
IMC-1 (IL-2 20 ng/mL) [4] | -0.29 | 1.94 | 3.33 | -17.4 | 99.7
KAI3 (IL-2 2.5 ng/mL) [14] | -6.96 | -4.92 | 1.78 | 40.4 | 84.1
KHYG-1 (IL-2 2.5 ng/mL) [6] | 1.04 | 0.45 | 7.11 | 25.7 | 101
NK-92 (IL-2 2.5 ng/mL) [5] | -0.1 | -2.5 | 13 | 13.8 | 98.3
NK-YS (IL-2 2.5 ng/mL) [12] | 0.78 | -5.84 | 0.53 | -1.43 | 73.7
NKL (IL-2 2.5 ng/mL) [11] | -12.4 | -7.42 | -0.44 | 15.2 | 92.2
SNK-6 (IL-2 2.5 ng/mL) [2] | 29.9 | 30.9 | 23.3 | 32.9 | 95.6
YT (IL-2 2.5 ng/mL) [8] | 4.94 | 2.25 | 8.23 | 7.75 | 51.7
[3] | 4.48 | -8.29 | 4.76 | 14.7 | 82.3
[7] | -8.11 | -2.18 | 2.55 | 19.3 | 94.4
[9] | 3.39 | -4.76 | 4.88 | 39 | 94.2
[10] | -10.8 | 5.08 | 7.69 | 43 | 91.3
[28] | -1.17 | 1.75 | 2.79 | 36.6 | 99.5
